Results on one compound are retold here after patent US20210346524A1, “FUSOGENIC LIPOSOMES FOR SELECTIVE IMAGING OF TUMOR CELLS” (APA- Advanced Technologies Ltd., priority 2018, published 2021).

The data set in a line: Solubilization of fluorophore in aqueous hydration solution for liposome encapsulation. The data set is classed as physicochemical.

On to `CC1(C)C(/C=C/C=C/C=C/C=C2\N(CCCCS(=O)(=O)O)c3ccc4ccccc4c3C2(C)C)=[N+](CCCCS(=O)(=O)[O-])c2ccc3ccccc3c21` [ICG, indocyanine green], for which the “behaviour in phosphate buffered saline (PBS)” value is reported as “creates aggregates”.
